Assay results taken from patent publication US20090285834A1, “NOVEL MEMORY CTL INDUCTION POTENTIATOR” (DAINIPPON SUMITOMO PHARMA CO., LTD., priority 2005, published 2009).

Experiments:
EG7 (OVA-expressing EL4) = format: in vivo, mouse (C57BL/6NCrj); details: with peptide vaccine; EG7 transplanted 21 days after peptide administration; followed to day 28; compared with PBS; FIG. 5
Method: Twenty-one days after peptide administration, 5×10^6 EG7 (OVA-expressing EL4: ATCC) suspended in 100 μL PBS was intradermally transplanted at the right flank using a 27 G injection needle after shaving. Tumor diameters (minimum diameter, maximum diameter) were measured using electronic calipers twice a week from 1 week to 28 days after EG7 transplantation, and tumor volumes were calculated.

cytokine production = details: in vivo; cited from earlier work
lymphocytes = details: in vivo; cited from earlier work

| Structure (SMILES) | tumor growth suppression (tumor volume) (EG7 (OVA-expressing EL4)) | time from which cytokine production is exhibited after administration (cytokine production) | time at which the reduction in lymphocytes reaches a peak (lymphocytes) |
| --- | --- | --- | --- |
| CCOCc1nc2c(N)nc3ccccc3c2n1CC(C)(C)O [R848] | a slight suppression against proliferation was observed | ≥ 1 h | – |
| O=P1(N(CCCl)CCCl)NCCCO1 (stereo not drawn) [cyclophosphamide] | – | – | 3 to 4 days |
